# Measured values as given in article PMC3947346 (Psychopharmacology, 2013).
# Assays:
# [1] = test system: male C57BL/6 J mice; experiment: repeated drinking-in-the-dark
# [2] = in vivo pharmacokinetic study, plasma; parameters: species or system mice; settings: 10 mg/kg p.o.
# [3] = test system: male C57BL/6 J mice; experiment: intermittent access to ethanol
# [4] = test system: male C57BL/6 J mice; experiment: blood ethanol concentrations; type: in vivo; settings: 17 mg/kg p.o.
smiles,measurement,setting,value
COc1nn(-c2ccc(F)c(NC(C)=O)c2)c(=O)n(Cc2ccc(Cl)c(F)c2)c1=O [ADX71441],"motor activity, observation",[1]; 30 mg/kg p.o.,signs of mild reduction in motor activity in a few animals
same,"DID ethanol intake (gram per kilogram), effect vs vehicle","[1]; 3, 10, 30 mg/kg p.o., hours 1-4, post hoc only 10 and 30 mg/kg",significantly and dose-dependently reduced
same,"Percent change from baseline, volume of ethanol (ml)","[1]; DID, 3 mg/kg p.o., 1 h",−25.93±11.92%
same,"Percent change from baseline, volume of ethanol (ml)","[1]; DID, 3 mg/kg p.o., 2 h",−23.12±7.29%
same,"Percent change from baseline, volume of ethanol (ml)","[1]; DID, 3 mg/kg p.o., 3 h",−9.84±6.84%
same,"Percent change from baseline, volume of ethanol (ml)","[1]; DID, 3 mg/kg p.o., 4 h",−4.83±8.82%
same,"Percent change from baseline, volume of ethanol (ml)","[1]; DID, 10 mg/kg p.o., 1 h",−70.44±13.55 %
same,"Percent change from baseline, volume of ethanol (ml)","[1]; DID, 10 mg/kg p.o., 2 h",−57.53±8.28 %
same,"Percent change from baseline, volume of ethanol (ml)","[1]; DID, 10 mg/kg p.o., 3 h",−36.11±5.39 %
same,"Percent change from baseline, volume of ethanol (ml)","[1]; DID, 10 mg/kg p.o., 4 h",−25.11±7.68 %
same,"Percent change from baseline, volume of ethanol (ml)","[1]; DID, 30 mg/kg p.o., 1 h",−80.73±4.11 %
same,"Percent change from baseline, volume of ethanol (ml)","[1]; DID, 30 mg/kg p.o., 2 h",−86.04±4.05 %
same,"Percent change from baseline, volume of ethanol (ml)","[1]; DID, 30 mg/kg p.o., 3 h",−80.99±4.39 %
same,"Percent change from baseline, volume of ethanol (ml)","[1]; DID, 30 mg/kg p.o., 4 h",−69.57±3.89 %
same,"Mean percent change from vehicle baseline, ethanol intake","[1]; DID, highest dose (30 mg/kg p.o.), across the 4-h test",−70–80%
same,mean plasma concentration at 4 h as % of the mean Cmax,[2]; 4 h,72%
same,mean plasma concentration at 24 h as % of the mean Cmax,[2]; 24 h,5%
same,AUC0–8,[2]; male C57BL/6 mice,"6,970 ng h/ml"
same,C max ± SD,[2]; male C57BL/6 mice,673 ± 50 ng/mL
same,Plasma concentration at 0.25 h,[2]; male C57BL/6 mice,538 ± 51 ng/mL
same,Plasma concentration ± SD at 1 h,[2]; male C57BL/6 mice,629 ± 61 ng/mL
same,Plasma concentration ± SD at 4 h,[2]; male C57BL/6 mice,487 ± 62 ng/mL
same,Plasma concentration ± SD at 24 h,[2]; male C57BL/6 mice,36.4 ± 33 ng/mL
same,T 1/2 (terminal half-life),[2]; male C57BL/6 mice,5.3 h
same,T max,[2]; male C57BL/6 mice,2 h
same,AUClast ± SD,"[2]; male C57BL/6 mice, Tlast=24 h","6,700±309 ng h/ml"
same,"Ethanol preference, effect","[3]; IA, 3, 10, 17 mg/kg p.o., any time point",not significantly affected
same,"Percent change from baseline, volume of ethanol","[3]; IA, 3 mg/kg p.o., 2 h",−3.92±12.96%
same,"Percent change from baseline, volume of ethanol","[3]; IA, 3 mg/kg p.o., 4 h",−8.21±7.51%
same,"Percent change from baseline, volume of ethanol","[3]; IA, 3 mg/kg p.o., 24 h",0.31±6.16%
same,"Percent change from baseline, volume of ethanol","[3]; IA, 10 mg/kg p.o., 2 h",−37.54±18.17%
same,"Percent change from baseline, volume of ethanol","[3]; IA, 10 mg/kg p.o., 4 h",−29.60±10.55 %
same,"Percent change from baseline, volume of ethanol","[3]; IA, 10 mg/kg p.o., 24 h",−10.12±5.36%
same,"Percent change from baseline, volume of ethanol","[3]; IA, 17 mg/kg p.o., 2 h",−66.39±10.30 %
same,"Percent change from baseline, volume of ethanol","[3]; IA, 17 mg/kg p.o., 4 h",−44.07±9.06 %
same,"Percent change from baseline, volume of ethanol","[3]; IA, 17 mg/kg p.o., 24 h",−15.30±4.81 %
same,"Percent change from baseline, volume of water","[3]; IA, 3 mg/kg p.o., 2 h",46.78±40.53%
same,"Percent change from baseline, volume of water","[3]; IA, 3 mg/kg p.o., 4 h",17.35±22.27%
same,"Percent change from baseline, volume of water","[3]; IA, 3 mg/kg p.o., 24 h",−7.73±19.28%
same,"Percent change from baseline, volume of water","[3]; IA, 10 mg/kg p.o., 2 h",55.56±45.39%
same,"Percent change from baseline, volume of water","[3]; IA, 10 mg/kg p.o., 4 h",19.72±20.18%
same,"Percent change from baseline, volume of water","[3]; IA, 10 mg/kg p.o., 24 h",9.05±18.21%
same,"Percent change from baseline, volume of water","[3]; IA, 17 mg/kg p.o., 2 h",−26.90±22.63%
same,"Percent change from baseline, volume of water","[3]; IA, 17 mg/kg p.o., 4 h",−9.62±13.96%
same,"Percent change from baseline, volume of water","[3]; IA, 17 mg/kg p.o., 24 h",10.83±11.73%
same,"IA ethanol drinking (gram per kilogram), effect vs vehicle","[3]; p.o., 4-h access period, 10 and 17 mg/kg most effective, not at 2 h",reduced ethanol drinking
same,"BEC after 4 h IA, difference vs vehicle treatment",[4],not statistically different
same,Average BEC (blood ethanol concentration),"[4]; after 4 h IA access, vehicle 47.73±9.18 mg/dl",35.74 ± 5.34 mg/dL
"O=C1CC[C@@]2(O)[C@H]3Cc4ccc(O)c5c4[C@@]2(CCN3CC2CC2)[C@H]1O5 [Naltrexone, reference compound]","DID ethanol intake (gram per kilogram), effect vs vehicle","[1]; 0.1, 1, 10 mg/kg i.p., any subsequent hour (2-4 h)",no effect
same,"DID ethanol intake (gram per kilogram), effect vs vehicle","[1]; 0.1, 1, 10 mg/kg i.p., first hour, all doses",significantly reduced ethanol drinking
same,Mean percent decrease of ethanol intake (ml),"[1]; DID, 10 mg/kg i.p., initial hour",approximately 57%
same,"IA ethanol drinking (gram per kilogram), effect vs saline vehicle","[3]; 10 mg/kg i.p., 2-h access",decreased ethanol drinking
same,Mean percent decrease of ethanol intake (ml),"[3]; IA, 10 mg/kg i.p., 2 h",approximately 36%
